Common to all, as to format: in vivo
For assay [1], the system named is velvetleaf (Abutilon theophrasti MEDIC.). As to the kind of experiment: Test Example 2: soil application on the day after sowing, velvetleaf. Conditions: 250 g/ha active ingredient, observed 19th to 28th day after application. The source says: (§1) Upland field soil was put into a 1/170,000 hectare pot, and seeds of various plants barnyardgrass (Echinochloa crus-galli L.), crabgrass (Digitaria sanquinalis L.), green foxtail (Setaria viridis L.), redroot pigweed (Amaranthus retroflexus L.), prickly sida (Sida spinosa L.), velvetleaf (Abutilon theophrasti MEDIC.), rice (Oryza sativa L.), wheat (Triticum spp.), corn (Zea mays L.) and soybean (Glycine max Merr.)) were sown. On the day after sowing, wettable powders or emulsifiable concentrates of the compounds of the above formula (I) prepared in accordance with a conventional preparation method, were weighed so that the active ingredients became the prescribed amounts, and diluted with water in an amount corresponding to 500 liter per 1 hectare, followed by soil application with a small sprayer.
(§2) On the 19th to 28th day after the application, the state of growth of the respective plants was visually observed, and the herbicidal effect was evaluated by a growth inhibition rate (%) of from 0 (equivalent to the non-treated area) to 100% (complete kill).

For assay [2], the system named is barnyardgrass (Echinochloa crus-galli L.). As to the kind of experiment: Test Example 2: soil application on the day after sowing, barnyardgrass. The following applies: 250 g/ha active ingredient, observed 19th to 28th day after application.
Source text: as §1, §2

Assay [3] deals with soybean (Glycine max Merr.). The assay can be described thus: Test Example 2: soil application on the day after sowing, soybean. Conditions: 250 g/ha active ingredient, observed 19th to 28th day after application.
Source text: as §1, §2

Assay [4] deals with crabgrass (Digitaria sanguinalis L.). The assay can be described thus: Test Example 1: foliar treatment, upland pot test, crabgrass. An excerpt: (§3) Upland field soil was put into a 1/170,000 hectare pot, and seeds of various plants were sown. When the respective plants reached predetermined leaf stage ((1) barnyardgrass (Echinochloa crus-galli L.): 1.0 to 3.0 leaf stage, (2) crabgrass (Digitaria sanguinalis L.): 1.0 to 3.0 leaf stage, (3) green foxtail (Setaria viridis L.): 1.0 to 3.0 leaf stage, (4) redroot pigweed (Amaranthus retroflexus L.): cotyledon stage to 2.0 leaf stage, (5) prickly sida (Sida spinosa L.): cotyledon stage to 1.0 leaf stage, (6) velvetleaf (Abutilon theophrasti MEDIC.): 0.1 to 1.5 leaf stage, (7) rice (Oryza sativa L.): 1.0 to 3.0 leaf stage, (8) wheat (Triticum spp.): 1.7 to 3.4 leaf stage, (9) corn (Zea mays L.): 2.0 to 3.5 leaf stage, (10) soybean (Glycine max Merr.): primary leaf stage to 0.4 leaf stage), wettable powders or emulsifiable concentrates of the compounds of the above formula (I) prepared in accordance with a conventional preparation method, were weighed so that the active ingredients became the prescribed amounts, and diluted with water in an amount corresponding to 500 liter per 1 hectare (containing 0.1 vol % of “KUSARINOH”, manufactured by NIHON NOHYAKU CO., LTD. as an agricultural spreader). The spray solutions thus prepared were applied for foliar treatment by a small sprayer.
(§4) On the 17th to 25th day after application, the state of growth of the respective plants was visually observed, and the herbicidal effect was evaluated by a growth inhibition rate (%) of 0 (equivalent to the non-treated area) to 100% (complete kill).

The test system of assay [5] is rice (Oryza sativa L.). As to the kind of experiment: Test Example 2: soil application on the day after sowing, rice. Conditions: 250 g/ha active ingredient, observed 19th to 28th day after application.
Source text: as §1, §2

Assay [6] deals with rice (Oryza sativa L.). The assay can be described thus: Test Example 1: foliar treatment, upland pot test, rice.
Source text: as §3, §4

Assay [7] relates to crabgrass (Digitaria sanquinalis L.). The assay can be described thus: Test Example 2: soil application on the day after sowing, crabgrass. Conditions: 250 g/ha active ingredient, observed 19th to 28th day after application.
Source text: as §1, §2

The test system of assay [8] is soybean (Glycine max Merr.). As to the kind of experiment: Test Example 1: foliar treatment, upland pot test, soybean.
Source text: as §3, §4

Assay [9] concerns redroot pigweed (Amaranthus retroflexus L.). The assay can be described thus: Test Example 1: foliar treatment, upland pot test, redroot pigweed. Conditions: for Growth inhibition rate (%) Redroot pigweed: 31 g/ha active ingredient, observed 17th to 25th day after application.
Source text: as §3, §4

The test system of assay [10] is barnyardgrass (Echinochloa crus-galli L.). As to the kind of experiment: Test Example 1: foliar treatment, upland pot test, barnyardgrass.
Source text: as §3, §4

Assay [11] has as its system green foxtail (Setaria viridis L.). The assay can be described thus: Test Example 2: soil application on the day after sowing, green foxtail. Conditions: 250 g/ha active ingredient, observed 19th to 28th day after application.
Source text: as §1, §2

Assay [12] concerns prickly sida (Sida spinosa L.). As to the kind of experiment: Test Example 2: soil application on the day after sowing, prickly sida. The following applies: 250 g/ha active ingredient, observed 19th to 28th day after application.
Source text: as §1, §2

Assay [13] has as its system prickly sida (Sida spinosa L.). As to the kind of experiment: Test Example 1: foliar treatment, upland pot test, prickly sida. The following applies: for Growth inhibition rate (%) Prickly sida: 31 g/ha active ingredient, observed 17th to 25th day after application.
Source text: as §3, §4

Assay [14] deals with redroot pigweed (Amaranthus retroflexus L.). The assay can be described thus: Test Example 2: soil application on the day after sowing, redroot pigweed. The following applies: 250 g/ha active ingredient, observed 19th to 28th day after application.
Source text: as §1, §2

Assay [15] has as its system corn (Zea mays L.). The assay can be described thus: Test Example 1: foliar treatment, upland pot test, corn.
Source text: as §3, §4

Assay [16] deals with velvetleaf (Abutilon theophrasti MEDIC.). As to the kind of experiment: Test Example 1: foliar treatment, upland pot test, velvetleaf.
Source text: as §3, §4

Assay [17] concerns corn (Zea mays L.). As to the kind of experiment: Test Example 2: soil application on the day after sowing, corn. Conditions: 250 g/ha active ingredient, observed 19th to 28th day after application.
Source text: as §1, §2

For assay [18], the system named is green foxtail (Setaria viridis L.). As to the kind of experiment: Test Example 1: foliar treatment, upland pot test, green foxtail.
Source text: as §3, §4

The test system of the next assay is wheat (Triticum spp.). The assay can be described thus: Test Example 1: foliar treatment, upland pot test, wheat. The following applies: Triticum, 63 g/ha active ingredient, observed 21st day after application, read-out: Growth inhibition rate (%) Wheat.
Source text: as §3, §4

The mark [19] stands for this setting: 31 g/ha active ingredient, observed 17th to 25th day after application.

For the molecule `COC(C)COc1c(S(C)(=O)=O)ccc(C(=O)c2cnn(C)c2O)c1C` (stereo not drawn) [compound 227], the “Growth inhibition rate (%) Velvetleaf” value in [1] and in assay [16] (setting [19]) was 100% throughout. Besides, the results for the “Growth inhibition rate (%) Barnyardgrass” value in assay [2] and in assay [10] (setting [19]) were 100% and 95%, respectively. Further, the “Growth inhibition rate (%) Soybean” value in [3] came out at 10%; in assay [8] (setting [19]) it was 100%. The “Growth inhibition rate (%) Crabgrass” value was found to be 60% in assay [4] (setting [19]) and 100% in [7]. Moreover, the “Growth inhibition rate (%) Rice” value with rice (Oryza sativa L.) [5] was 100%; in the assay with rice (Oryza sativa L.) [6] (setting [19]), 80%. Further, the “Growth inhibition rate (%) Redroot pigweed” value in [9] and in assay [14] was 100% in each case. The “Growth inhibition rate (%) Green foxtail” value in [11] is given as 100%; in [18] (setting [19]), 98%. The “Growth inhibition rate (%) Prickly sida” value in assay [12] turned out to be 98%; in assay [13] it was 90%. Further, the “Growth inhibition rate (%) Corn” value in the assay on corn (Zea mays L.) [15] (setting [19]) and in the assay on corn (Zea mays L.) [17] was 0% in each case.
With `Cc1c(C(=O)c2cnn(C)c2O)ccc(S(C)(=O)=O)c1COCC(F)(F)F` [compound 160], the “Growth inhibition rate (%) Velvetleaf” value in assay [1] and in [16] (setting [19]) was 100% throughout. Further, the “Growth inhibition rate (%) Barnyardgrass” value in assay [2] was determined as 100%; in assay [10] (setting [19]) it was 90%. The “Growth inhibition rate (%) Soybean” value in [3] amounted to 50%; in assay [8] (setting [19]) it was 98%. In addition, the “Growth inhibition rate (%) Crabgrass” value in assay [4] (setting [19]) and in assay [7] was 100% in each case. For the same molecule, the “Growth inhibition rate (%) Rice” value in the assay with rice (Oryza sativa L.) [5] is 100%; with rice (Oryza sativa L.) [6] (setting [19]) it was 50%. In addition, the “Growth inhibition rate (%) Redroot pigweed” value in [9] was 98%; in assay [14] it was 100%. In addition, the entries for the “Growth inhibition rate (%) Green foxtail” value in assay [11] and in assay [18] (setting [19]) were 100% and 75%, respectively. Moreover, the “Growth inhibition rate (%) Prickly sida” value in assay [12] worked out at 95%; in assay [13] it was 60%. For the same molecule, the “Growth inhibition rate (%) Corn” value in the assay on corn (Zea mays L.) [15] (setting [19]) and with corn (Zea mays L.) [17] was 0% each time.
Take `Cc1c(C(=O)c2cnn(C)c2O)ccc(S(C)(=O)=O)c1CC1OCCO1` [compound 256]: the inhibition (in general, the change of the read-out against control, counted positive when it falls) at 250 g/ha in assay [1] (Abutilon theophrasti, read-out: Growth inhibition rate (%) Velvetleaf) stood at 80%; in [2] (Echinochloa crus-galli, read-out: Growth inhibition rate (%) Barnyardgrass), 100%; with rice (Oryza sativa L.) [5] (Oryza sativa, read-out: Growth inhibition rate (%) Rice), 80%; in [7] (Digitaria, read-out: Growth inhibition rate (%) Crabgrass) it was 100%; in [11] (Setaria viridis, read-out: Growth inhibition rate (%) Green foxtail), 95%; in [12] (Sida spinosa, read-out: Growth inhibition rate (%) Prickly sida) it was 60%. Further, the inhibition at 250 g/ha in the assay on corn (Zea mays L.) [17] (Zea mays, read-out: Growth inhibition rate (%) Corn) was 0%. Also, the inhibition at 31 g/ha in assay [4] (Digitaria sanguinalis, 31 g/ha active ingredient, observed 17th to 25th day after application, read-out: Growth inhibition rate (%) Crabgrass) worked out at 90%; in the assay with rice (Oryza sativa L.) [6] (Oryza sativa, 31 g/ha active ingredient, observed 17th to 25th day after application, read-out: Growth inhibition rate (%) Rice) it was 60%; in assay [8] (Glycine max, 31 g/ha active ingredient, observed 17th to 25th day after application, read-out: Growth inhibition rate (%) Soybean), 80%; in assay [10] (Echinochloa crus-galli, 31 g/ha active ingredient, observed 17th to 25th day after application, read-out: Growth inhibition rate (%) Barnyardgrass), 100%; in the assay on corn (Zea mays L.) [15] (Zea mays, 31 g/ha active ingredient, observed 17th to 25th day after application, read-out: Growth inhibition rate (%) Corn) it was 0%; in [16] (Abutilon theophrasti, 31 g/ha active ingredient, observed 17th to 25th day after application, read-out: Growth inhibition rate (%) Velvetleaf), 100%. Moreover, the inhibition at 31 g/ha in assay [18] (Setaria viridis, 31 g/ha active ingredient, observed 17th to 25th day after application, read-out: Growth inhibition rate (%) Green foxtail) turned out to be 70%.
On to `CCn1ncc(C(=O)c2ccc(S(C)(=O)=O)c(OCC3OCCO3)c2Cl)c1O` [compound 250], for which the inhibition at 63 g/ha amounted to 98% in assay [4] (Digitaria sanguinalis, 63 g/ha active ingredient, observed 21st day after application, read-out: Growth inhibition rate (%) Crabgrass); 0% with rice (Oryza sativa L.) [6] (Oryza sativa, 63 g/ha active ingredient, observed 21st day after application, read-out: Growth inhibition rate (%) Rice); 90% in assay [8] (Glycine max, 63 g/ha active ingredient, observed 21st day after application, read-out: Growth inhibition rate (%) Soybean); 100% in assay [9] (Amaranthus retroflexus, 63 g/ha active ingredient, observed 21st day after application, read-out: Growth inhibition rate (%) Redroot pigweed); 100% in assay [10] (Echinochloa crus-galli, 63 g/ha active ingredient, observed 21st day after application, read-out: Growth inhibition rate (%) Barnyardgrass); 60% in assay [13] (Sida spinosa, 63 g/ha active ingredient, observed 21st day after application, read-out: Growth inhibition rate (%) Prickly sida). Moreover, the inhibition at 63 g/ha was 10% in the assay on corn (Zea mays L.) [15] (Zea mays, 63 g/ha active ingredient, observed 21st day after application, read-out: Growth inhibition rate (%) Corn); 95% in [16] (Abutilon theophrasti, 63 g/ha active ingredient, observed 21st day after application, read-out: Growth inhibition rate (%) Velvetleaf); 0% in the assay with wheat (Triticum spp.); 80% in assay [18] (Setaria viridis, 63 g/ha active ingredient, observed 21st day after application, read-out: Growth inhibition rate (%) Green foxtail).
Take `Cc1c(C(=O)c2cnn(C)c2O)ccc(S(C)(=O)=O)c1COC(C)C` [compound 257]: the “Growth inhibition rate (%) Velvetleaf” value in assay [1] is listed as 80%; in assay [16] (setting [19]), 98%. Besides, the results for the “Growth inhibition rate (%) Barnyardgrass” value in [2] and in assay [10] (setting [19]) were 90% and 100%, respectively. In addition, the “Growth inhibition rate (%) Soybean” value in [3] came out at 0%; in assay [8] (setting [19]), 70%. For the same molecule, the “Growth inhibition rate (%) Crabgrass” value in [4] (setting [19]) came out at 90%; in assay [7] it was 100%. In addition, the “Growth inhibition rate (%) Rice” value in the assay with rice (Oryza sativa L.) [5] and in the assay on rice (Oryza sativa L.) [6] (setting [19]) was 90% each time. Besides, the “Growth inhibition rate (%) Redroot pigweed” value in assay [9] is on record as 85%; in [14] it was 98%. Also, the “Growth inhibition rate (%) Green foxtail” value is recorded as 60% in [11] and 98% in assay [18] (setting [19]). Also, the “Growth inhibition rate (%) Prickly sida” value in assay [12] is given as 70%; in [13] it was 75%. Further, the “Growth inhibition rate (%) Corn” value in the assay with corn (Zea mays L.) [15] (setting [19]) and in the assay on corn (Zea mays L.) [17] was 0% in each case.

(Values after US20100317528A1, “HERBICIDE CONTAINING BENZOYLPYRAZOLE COMPOUND” (ISHIHARA SANGYO KAISHA, LTD., priority 2006, published 2010).)
